# Laboratory results from patent US20260345555A1, “Compositions and Methods for Protecting Salivary Glands from Off-Target Radiation Damage” (University of Rochester, priority 2022, published 2026).
# Columns and labels:
# [1] = tested on: Reduced glutathione in salivary gland cell clusters (SGm); experiment: Glutathione assay in salivary gland tissue chip, 4 days post-radiation (15 Gy); also first screen of Selleck library at 100 μM; format: cell-based, mouse; conditions: for Estimated EC50, Glutathione: nonlinear fit in Prism of dose response curves; for prevention of radiation-induced reduction of glutathione levels: 4 days post-radiation; for Glutathione (radioprotection): key: +: radioprotection; ~: partial radioprotection; —: no radioprotection
# In short: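 Mouse submandibular gland cell clusters (20–100 μm) in PEG hydrogel on microbubble chips, cultured 4 days to form SGm, then dosed 30 min before and during 15 Gy irradiation and washed out 30 min after. Glutathione measured 4 days post-radiation; library compounds screened at 100 μM, hits matching 0 Gy levels.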
# [2] = tested on: γH2AX foci per nucleus in mouse submandibular gland; experiment: In vivo radioprotection of mouse salivary gland: γH2AX foci per nucleus (IHC) 48 hours after 15 Gy, retroductal injection
# Experimental: Female SKH1 hairless mice, backcrossed 6 generations with C57BL/6J mice, aged 6-12 weeks were used in this study for in vitro assay development and drug discovery. Female C57BL/6J mice age 6-8 weeks were used for in vivo validation studies. […] Animals were maintained on a 12 hr light/dark cycle and group-housed with food and water available ad libitum.
# Briefly, 6-10 week old female C57Bl/6 J mice were anesthetized by intraperitoneal injection of sterile saline solution of 100 mg/kg ketamine and 10 mg/kg xylazine. Maxillary incisors were secured over a metal beam, while an elastic band provided tension from behind the mandibular incisors. The mouth was widened using a custom steel retractor to apply pressure to the buccal mucosa and the tongue was retracted and cotton placed in the oral cavity. The wire inset of a 32 G intracranial catheter was cut at […] to create a bevel. The beveled wire created a shallow puncture in the left salivary papilla. A beveled catheter section containing the wire insert for support was gently inserted into the puncture site. The catheter was removed, and 1 mg/kg atropine was administered by intraperitoneal injection. After 10 min, the needle of a Hamilton syringe, loaded with vehicle or drug solution, was inserted into the catheter, and the catheter was inserted into the orifice produced in the papilla. Drug solutions were injected by hand at 10 μl/min at a volume of 1 μl/g of body weight. Following injection, the pressure was maintained on the syringe for 1 min to ensure material retention before removal of the catheter.
# The head and neck region was positioned over the slit of a custom collimator, which allowed body shielding.
# Submandibular glands and SGm were isolated and fixed in 4% paraformaldehyde overnight at 4 °C. Tissues were paraffin-embedded and then cut into […] sections. […] Permeabilization was performed with 0.5% Triton X-100 in PBS for 5 minutes. […] Following a PBS rinse, […] DAPI (Invitrogen, Carlsbad, CA) in PBS was applied to sections for 5 minutes. Sections were washed thrice in PBS for 5 minutes and the slides were mounted using Immu-Mount mounting medium (Thermo). Microscopic images were acquired using a Leica TCS SP5 confocal microscope with a 100× oil immersion objective and Argon laser. Analysis of images was performed in ImageJ.
# lymphocyte cells = conditions: cited from earlier work
# COX-1 = conditions: role: inhibitor; cited from earlier work
# COX-2 = conditions: role: inhibitor; cited from earlier work
# [3] = in vivo; cited from earlier work
# [4] = in vivo; cited from earlier work; remark: listed apart in the source
# [5] = phenylbutazone 50 mg/kg, corn oil
compound,measurement,setting,value
CCn1cc(C(=O)O)c(=O)c2cc(F)c(N3CCNCC3)nc21 [Enoxacin (Penetrex)],"radioprotection in dose response, glutathione assay","[1]; dose response, 15 Gy",protection only at higher concentrations
same,"Estimated EC50, Glutathione",[1]; 15 Gy,2.4 µM
same,reduction in γH2AX foci per nucleus compared to 15 Gy controls,[2]; enoxacin 0.3 mg/kg,0.5 fold
same,increase in γH2AX foci per nucleus,"[2]; enoxacin 0.3 mg/kg, comparator not given",1.6 fold
same,EC50,"lymphocyte cells; radioprotection, read-out: EC50, viability of lymphocyte cells",13 µM
same,radioprotection of lymphocytes,lymphocyte cells; viability of lymphocytes as primary readout,robust radioprotectors
Doripenem hydrate,"radioprotection in dose response, glutathione assay","[1]; dose response, 15 Gy",protection only at higher concentrations
same,"Estimated EC50, Glutathione",[1]; 15 Gy,8.6 µM
same,increase in γH2AX foci per nucleus compared to 0 Gy controls,[2]; doripenem hydrate 26 mg/kg,2.7 fold
same,reduction of γH2AX foci per nucleus relative to 15 Gy controls,[2]; doripenem hydrate 26 mg/kg,did not reduce
CCCCC1C(=O)N(c2ccccc2)N(c2ccccc2)C1=O [Phenylbutazone],COX-1 inhibition,COX-1,inhibits
same,COX-2 inhibition,COX-2,inhibits
same,adverse effects,[3],"rare but severe blood disorders, including anemia and leukopenia"
same,"concentration range of radioprotection, glutathione assay","[1]; dose response, 15 Gy",0.1 to 100 µM
same,"Estimated EC50, Glutathione",[1]; 15 Gy,0.08 µM
same,reduction in γH2AX foci per nucleus compared to 15 Gy controls,[2]; [5],0.4 fold
same,γH2AX foci per nucleus versus 0 Gy controls,[2]; [5],not significantly different from 0 Gy controls
same,bioavailability,[4],up to 90%
same,half-life,[4],50 to 105 h
NCCCNCCS [WR-1065],prevention of radiation-induced reduction of glutathione levels,"[1]; 0.1 mM, 15 Gy",ineffective
same,prevention of radiation-induced reduction of glutathione levels,"[1]; 0.4 mM, 15 Gy",ineffective
same,Glutathione (radioprotection),[1]; 1 mM,+
same,prevention of radiation-induced reduction of glutathione levels,"[1]; 1 mM, 15 Gy",significant protection
same,Glutathione (radioprotection),[1]; 4 mM,+
same,prevention of radiation-induced reduction of glutathione levels,"[1]; 4 mM, 15 Gy",significant protection
same,reduction in γH2AX foci per nucleus compared to 15 Gy controls,[2]; WR-1065 50 mg/kg,0.5 fold
same,γH2AX foci per nucleus versus 0 Gy controls,[2]; WR-1065 50 mg/kg,No significant differences
